Earlier results as cited in patent US11646117B2, “Matrix factorization of antibiogram metadata” (priority 2019, dated 2023).
Read-outs that look alike come from different tables or passages of the source.

Test system: Klebsiella pneumoniae (biosample SAMN07265011, strain DHQP1605752_NV)
Details: for Measurement (MIC): CLSI; for Resistance phenotype: testing standard CLSI

Compound | Measurement (MIC) (laboratory typing method MIC) | Resistance phenotype | Measurement (MIC) (MIC, platform Agar dilution) | Measurement (MIC) (MIC, platform Etest)
NCC[C@H](O)C(=O)N[C@@H]1C[C@H](N)[C@@H](O[C@H]2O[C@H](CN)[C@@H](O)[C@H](O)[C@H]2O)[C@H](O)[C@H]1O[C@H]1O[C@H](CO)[C@@H](O)[C@H](N)[C@H]1O [amikacin] | > 64 µg/mL | resistant | – | –
CC1(C)S[C@@H]2[C@H](NC(=O)[C@H](N)c3ccccc3)C(=O)N2[C@H]1C(=O)O [ampicillin] | > 32 µg/mL | resistant | – | –
C[C@H]1[C@H](NC(=O)/C(=N\OC(C)(C)C(=O)O)c2csc(N)n2)C(=O)N1S(=O)(=O)O [aztreonam] | > 64 µg/mL | resistant | – | –
Cc1nnc(SCC2=C(C(=O)O)N3C(=O)[C@@H](NC(=O)Cn4cnnn4)[C@H]3SC2)s1 [cefazolin] | > 8 µg/mL | resistant | – | –
CO/N=C(\C(=O)N[C@@H]1C(=O)N2C(C(=O)[O-])=C(C[N+]3(C)CCCC3)CS[C@H]12)c1csc(N)n1 [cefepime] | > 32 µg/mL | resistant | – | –
CO/N=C(\C(=O)N[C@@H]1C(=O)N2C(C(=O)O)=C(COC(C)=O)CS[C@H]12)c1csc(N)n1 [cefotaxime] | > 64 µg/mL | resistant | – | –
CO[C@@]1(NC(=O)Cc2cccs2)C(=O)N2C(C(=O)O)=C(COC(N)=O)CS[C@@H]21 [cefoxitin] | > 16 µg/mL | resistant | – | –
CC(C)(O/N=C(\C(=O)N[C@@H]1C(=O)N2C(C(=O)[O-])=C(C[n+]3ccccc3)CS[C@H]12)c1csc(N)n1)C(=O)O [ceftazidime] | > 128 µg/mL | resistant | – | –
CO/N=C(\C(=O)N[C@@H]1C(=O)N2C(C(=O)O)=C(CSc3nc(=O)c(=O)[nH]n3C)CS[C@H]12)c1csc(N)n1 [ceftriaxone] | > 32 µg/mL | resistant | – | –
O=C(N[C@H](CO)[C@H](O)c1ccc([N+](=O)[O-])cc1)C(Cl)Cl [chloramphenicol] | > 16 µg/mL | resistant | – | –
C[C@@H](O)[C@H]1C(=O)N2C(C(=O)O)=C(S[C@@H]3CN[C@H](CNS(N)(=O)=O)C3)[C@H](C)[C@H]12 [doripenem] | > 8 µg/mL | resistant | – | –
C[C@@H](O)[C@H]1C(=O)N2C(C(=O)O)=C(S[C@@H]3CN[C@H](C(=O)Nc4cccc(C(=O)O)c4)C3)[C@H](C)[C@H]12 [ertapenem] | > 8 µg/mL | resistant | – | –
C[C@@H]1O[C@@H]1P(=O)(O)O [fosfomycin] | – | – | 32 µg/mL | 16 µg/mL
C[C@@H](O)[C@H]1C(=O)N2C(C(=O)O)=C(S[C@@H]3CN[C@H](C(=O)N(C)C)C3)[C@H](C)[C@H]12 [meropenem] | > 8 µg/mL | resistant | – | –
CN(C)c1cc(NC(=O)CNC(C)(C)C)c(O)c2c1C[C@H]1C[C@H]3[C@H](N(C)C)C(O)=C(C(N)=O)C(=O)[C@@]3(O)C(O)=C1C2=O [tigecycline] | 4 µg/mL | intermediate | – | –
NC[C@H]1O[C@H](O[C@H]2[C@H](O)[C@@H](O[C@H]3O[C@H](CO)[C@@H](O)[C@H](N)[C@H]3O)[C@H](N)C[C@@H]2N)[C@H](N)C[C@@H]1O [tobramycin] | > 16 µg/mL | resistant | – | –
colistin | > 8 µg/mL | – | – | –
gentamicin | > 16 µg/mL | resistant | – | –
polymyxin B | > 8 µg/mL | – | – | –
